# According to patent US20140348819A1, “Methods of Treating Cancer” (Dana-Farber Cancer Institute, Inc., priority 2011, published 2014):
# Tested on: six V600E BRAF melanoma cell lines
# Test: Screening of recombinant RTK ligands for ability to confer resistance to BRAFi (PLX4720) or MEKi (PD184352) (Table 4)
# Type: cell-based, human
# Design: ability of recombinant RTK ligand to confer resistance / ability of recombinant RTK ligand to confer resistance (screening value): scale not given here
# Experimental: HGF is the only one that can substantially confer drug resistance to the cell lines.
# The complexity of the tumor microenvironment is much greater than an in vitro co-culture system. Therefore, the inventors explored whether the activation of other RTKs could result in a similar resistance as that observed with the activation of MET. To this end, six V600E BRAF melanoma cell lines were tested for their resistance to either BRAFi (PLX4720) or MEKi (PD184352) after the addition of 22 RTK ligands that have the potential of activating almost all known RTKs. […] The activation of a selected subset of these RTKs was confirmed by western blotting and by high throughput tyrosine kinase phosphorylation profiling.
substance,measurement,setting,value
NT3,ability of recombinant RTK ligand to confer resistance,"A2058, PD184352 - 1 uM, ligand 0.4 ng/ml",1.04
same,ability of recombinant RTK ligand to confer resistance,"A2058, PD184352 - 1 uM, ligand 1.6 ng/ml",1.13
same,ability of recombinant RTK ligand to confer resistance,"A2058, PD184352 - 1 uM, ligand 6.25 ng/ml",1.08
same,ability of recombinant RTK ligand to confer resistance,"A2058, PD184352 - 1 uM, ligand 25 ng/ml",1.01
same,ability of recombinant RTK ligand to confer resistance,"A2058, PD184352 - 1 uM, ligand 100 ng/ml",0.90
same,ability of recombinant RTK ligand to confer resistance,"A2058, PLX4720 - 2 uM, ligand 0.4 ng/ml",1.02
same,ability of recombinant RTK ligand to confer resistance,"A2058, PLX4720 - 2 uM, ligand 1.6 ng/ml",1.16
same,ability of recombinant RTK ligand to confer resistance,"A2058, PLX4720 - 2 uM, ligand 6.25 ng/ml",1.09
same,ability of recombinant RTK ligand to confer resistance,"A2058, PLX4720 - 2 uM, ligand 25 ng/ml",1.02
same,ability of recombinant RTK ligand to confer resistance,"A2058, PLX4720 - 2 uM, ligand 100 ng/ml",0.93
same,ability of recombinant RTK ligand to confer resistance,"C32, PD184352 - 1 uM, ligand 0.4 ng/ml",0.98
same,ability of recombinant RTK ligand to confer resistance,"C32, PD184352 - 1 uM, ligand 1.6 ng/ml",1.02
same,ability of recombinant RTK ligand to confer resistance,"C32, PD184352 - 1 uM, ligand 6.25 ng/ml",0.93
same,ability of recombinant RTK ligand to confer resistance,"C32, PD184352 - 1 uM, ligand 25 ng/ml",0.95
same,ability of recombinant RTK ligand to confer resistance,"C32, PD184352 - 1 uM, ligand 100 ng/ml",0.88
same,ability of recombinant RTK ligand to confer resistance,"C32, PLX4720 - 2 uM, ligand 0.4 ng/ml",1.00
same,ability of recombinant RTK ligand to confer resistance,"C32, PLX4720 - 2 uM, ligand 1.6 ng/ml",1.03
same,ability of recombinant RTK ligand to confer resistance,"C32, PLX4720 - 2 uM, ligand 6.25 ng/ml",0.91
same,ability of recombinant RTK ligand to confer resistance,"C32, PLX4720 - 2 uM, ligand 25 ng/ml",1.00
same,ability of recombinant RTK ligand to confer resistance,"C32, PLX4720 - 2 uM, ligand 100 ng/ml",0.95
same,ability of recombinant RTK ligand to confer resistance,"Colo 829, PD184352 - 1 uM, ligand 0.4 ng/ml",1.07
same,ability of recombinant RTK ligand to confer resistance,"Colo 829, PD184352 - 1 uM, ligand 1.6 ng/ml",1.16
same,ability of recombinant RTK ligand to confer resistance,"Colo 829, PD184352 - 1 uM, ligand 6.25 ng/ml",1.02
same,ability of recombinant RTK ligand to confer resistance,"Colo 829, PD184352 - 1 uM, ligand 25 ng/ml",1.07
same,ability of recombinant RTK ligand to confer resistance,"Colo 829, PD184352 - 1 uM, ligand 100 ng/ml",1.03
same,ability of recombinant RTK ligand to confer resistance,"Colo 829, PLX4720 - 2 uM, ligand 0.4 ng/ml",1.03
same,ability of recombinant RTK ligand to confer resistance,"Colo 829, PLX4720 - 2 uM, ligand 1.6 ng/ml",1.15
same,ability of recombinant RTK ligand to confer resistance,"Colo 829, PLX4720 - 2 uM, ligand 6.25 ng/ml",1.00
same,ability of recombinant RTK ligand to confer resistance,"Colo 829, PLX4720 - 2 uM, ligand 25 ng/ml",1.09
same,ability of recombinant RTK ligand to confer resistance,"Colo 829, PLX4720 - 2 uM, ligand 100 ng/ml",1.04
same,ability of recombinant RTK ligand to confer resistance,"G-361, PD184352 - 1 uM, ligand 0.4 ng/ml",0.98
same,ability of recombinant RTK ligand to confer resistance,"G-361, PD184352 - 1 uM, ligand 1.6 ng/ml",0.98
same,ability of recombinant RTK ligand to confer resistance,"G-361, PD184352 - 1 uM, ligand 6.25 ng/ml",1.01
same,ability of recombinant RTK ligand to confer resistance,"G-361, PD184352 - 1 uM, ligand 25 ng/ml",1.05
same,ability of recombinant RTK ligand to confer resistance,"G-361, PD184352 - 1 uM, ligand 100 ng/ml",0.88
same,ability of recombinant RTK ligand to confer resistance,"G-361, PLX4720 - 2 uM, ligand 0.4 ng/ml",0.95
same,ability of recombinant RTK ligand to confer resistance,"G-361, PLX4720 - 2 uM, ligand 1.6 ng/ml",0.98
same,ability of recombinant RTK ligand to confer resistance,"G-361, PLX4720 - 2 uM, ligand 6.25 ng/ml",1.00
same,ability of recombinant RTK ligand to confer resistance,"G-361, PLX4720 - 2 uM, ligand 25 ng/ml",0.98
same,ability of recombinant RTK ligand to confer resistance,"G-361, PLX4720 - 2 uM, ligand 100 ng/ml",0.84
same,ability of recombinant RTK ligand to confer resistance,"SK-MEL-5, PD184352 - 1 uM, ligand 0.4 ng/ml",1.02
same,ability of recombinant RTK ligand to confer resistance,"SK-MEL-5, PD184352 - 1 uM, ligand 1.6 ng/ml",1.08
same,ability of recombinant RTK ligand to confer resistance,"SK-MEL-5, PD184352 - 1 uM, ligand 6.25 ng/ml",1.00
same,ability of recombinant RTK ligand to confer resistance,"SK-MEL-5, PD184352 - 1 uM, ligand 25 ng/ml",0.94
same,ability of recombinant RTK ligand to confer resistance,"SK-MEL-5, PD184352 - 1 uM, ligand 100 ng/ml",1.04
same,ability of recombinant RTK ligand to confer resistance,"SK-MEL-5, PLX4720 - 2 uM, ligand 0.4 ng/ml",0.99
same,ability of recombinant RTK ligand to confer resistance,"SK-MEL-5, PLX4720 - 2 uM, ligand 1.6 ng/ml",1.02
same,ability of recombinant RTK ligand to confer resistance,"SK-MEL-5, PLX4720 - 2 uM, ligand 6.25 ng/ml",0.93
same,ability of recombinant RTK ligand to confer resistance,"SK-MEL-5, PLX4720 - 2 uM, ligand 25 ng/ml",0.98
same,ability of recombinant RTK ligand to confer resistance,"SK-MEL-5, PLX4720 - 2 uM, ligand 100 ng/ml",1.09
same,ability of recombinant RTK ligand to confer resistance,"SK-MEL-28, PD184352 - 1 uM, ligand 0.4 ng/ml",1.02
same,ability of recombinant RTK ligand to confer resistance,"SK-MEL-28, PD184352 - 1 uM, ligand 1.6 ng/ml",0.97
same,ability of recombinant RTK ligand to confer resistance,"SK-MEL-28, PD184352 - 1 uM, ligand 6.25 ng/ml",0.99
same,ability of recombinant RTK ligand to confer resistance,"SK-MEL-28, PD184352 - 1 uM, ligand 25 ng/ml",1.15
same,ability of recombinant RTK ligand to confer resistance,"SK-MEL-28, PD184352 - 1 uM, ligand 100 ng/ml",0.96
same,ability of recombinant RTK ligand to confer resistance,"SK-MEL-28, PLX4720 - 2 uM, ligand 0.4 ng/ml",0.95
same,ability of recombinant RTK ligand to confer resistance,"SK-MEL-28, PLX4720 - 2 uM, ligand 1.6 ng/ml",1.05
same,ability of recombinant RTK ligand to confer resistance,"SK-MEL-28, PLX4720 - 2 uM, ligand 6.25 ng/ml",0.89
same,ability of recombinant RTK ligand to confer resistance,"SK-MEL-28, PLX4720 - 2 uM, ligand 25 ng/ml",1.14
same,ability of recombinant RTK ligand to confer resistance,"SK-MEL-28, PLX4720 - 2 uM, ligand 100 ng/ml",0.94
